The target of one data set is T1, soybean lipoxygenase-1 (Glycine max, UniProt P08170).
T1 sequence (P08170 1-839): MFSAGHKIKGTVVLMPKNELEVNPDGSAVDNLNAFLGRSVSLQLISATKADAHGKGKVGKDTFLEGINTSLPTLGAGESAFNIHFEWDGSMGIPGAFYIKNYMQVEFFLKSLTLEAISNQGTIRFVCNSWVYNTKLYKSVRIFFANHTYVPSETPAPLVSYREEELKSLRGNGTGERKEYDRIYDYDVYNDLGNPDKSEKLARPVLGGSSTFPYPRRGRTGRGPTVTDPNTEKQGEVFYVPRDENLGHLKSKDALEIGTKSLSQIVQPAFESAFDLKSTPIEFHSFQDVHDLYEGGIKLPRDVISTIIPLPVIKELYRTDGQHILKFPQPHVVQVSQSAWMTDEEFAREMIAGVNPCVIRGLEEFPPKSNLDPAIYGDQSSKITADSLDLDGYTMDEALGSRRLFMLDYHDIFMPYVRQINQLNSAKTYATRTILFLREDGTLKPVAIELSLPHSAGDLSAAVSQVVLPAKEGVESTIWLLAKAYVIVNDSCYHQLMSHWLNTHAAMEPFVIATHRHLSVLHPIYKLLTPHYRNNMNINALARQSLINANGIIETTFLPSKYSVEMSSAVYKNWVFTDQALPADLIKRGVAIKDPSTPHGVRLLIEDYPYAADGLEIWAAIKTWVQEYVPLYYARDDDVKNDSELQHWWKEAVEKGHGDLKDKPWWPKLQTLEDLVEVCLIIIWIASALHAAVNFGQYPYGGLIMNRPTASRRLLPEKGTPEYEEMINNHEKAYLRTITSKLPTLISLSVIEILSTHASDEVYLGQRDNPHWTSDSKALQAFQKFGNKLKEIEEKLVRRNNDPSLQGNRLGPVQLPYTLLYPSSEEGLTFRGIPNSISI
Put plainly: Inhibition of soybean lipoxygenase. It is filed as biochemical. How it is done: The reaction mixture contained the test compounds dissolved in ethanol and soybean lipoxygenase (250 U/mL) in Tris buffer (pH 9). The reaction was initiated by the addition of sodium linoleate (0.1 mM) and monitored for 7 min at 28 °C, by recording the absorbance of a conjugated diene structure at 234 nm. For the estimation of the type of inhibition, the above experiments were repeated, using sodium linoleate at 1 mM, which is higher than the saturating substrate concentration.

Data set [1] deals with Triton WR1339 (tyloxapol) induced hyperlipidemia. Put plainly: Triton WR1339 (tyloxapol) induced hyperlipidemia: plasma TC, TG, LDL-C. It is filed as in vivo. To be noted: ip, rat plasma, 24 h, tyloxapol 200 mg/kg i.p.; for inhibition in vivo at 50 µmol/kg: dose i.p. 50 µmol/kg; for inhibition in vivo at 150 µmol/kg: dose i.p. 150 µmol/kg; for inhibition in vivo at 300 µmol/kg: dose i.p. 300 µmol/kg; for inhibition in vivo at 500 µmol/kg: dose i.p. 500 µmol/kg.

The test system of data set [2] is carrageenan-induced rat paw oedema. Put plainly: Carrageenan-induced rat paw oedema. It is filed as in vivo. To be noted: ip, i.p. 0.15 mmol/kg, 3.5 h post administration, vs controls, read-out: % Oedema Reduction. The protocol: An aqueous solution of carrageenan was prepared (1% w/v) and 0.1 mL of this was injected i.d. into the right hind paw of female rats; the left paw served as control. The tested compounds (suspended in water with a few drops of Tween 80) were given intra peritoneally (i.p.) (0.15 mmol/kg) 5 min prior to the carrageenan injection. After 3.5 h the hind paws were weighed separately. The produced oedema was estimated as paw weight increase.
In general terms: Carrageenan injected into the paw causes an acute inflammation.

In data set [3] the test system is rat hepatic microsomal membrane lipid peroxidation. Put plainly: Inhibition of rat hepatic microsomal membrane lipid peroxidation induced by ferrous ascorbate. The conditions noted are these: for Antioxidant activity (lipid peroxidation and DPPH experiments): lipid peroxidation inhibition and DPPH interaction, result in words. It is filed as biochemical. How it is done: The incubation mixture contained heat-inactivated rat hepatic microsomal fraction, ascorbic acid (0.2 mM) in Tris–HCl/KCl buffer (pH 7.4) and the test compounds dissolved in dimethylsulphoxide. The reaction was initiated by FeSO4 (10 µM) and the mixture was incubated at 37 °C. Aliquots were taken at various time intervals for 45 min. Lipid peroxidation was assessed spectrophotometrically (535 against 600 nm) by the determination of 2-thiobarbituric acid (TBA) reactive material.
A general note: DPPH is a stable violet radical that fades when it is reduced.

Data set [4] is described as follows: Interaction with the stable radical DPPH. To be noted: DPPH 200 µΜ, 30 min incubation. How it is done: Compounds (in absolute ethanol, final concentration 50–200 µM) were added to an equal volume of an ethanolic solution of DPPH (final concentration 200 µM) at room temperature (22 ± 2 °C). Absorbance (517 nm) was recorded after 30 min [22].
[5] abbreviates: sodium linoleate 0.1 mM, 7 min incubation, read-out: Lipoxygenase IC50.
[6] abbreviates: read-out: % Reduction LDL-C (LDL cholesterol).
The mark [7] stands for this setting: read-out: % Reduction TC (total cholesterol).
Where [8] appears, read: read-out: % Reduction TG (triglycerides).

Entries after “also recorded” stand apart in the source; their conditions may differ. Like-named read-outs stand apart in the source and are kept apart here. Some results are limits rather than exact numbers.

A word on the IC50: it is the midpoint of a concentration-inhibition curve. One may read the melting point as the temperature of the solid-liquid transition.

On to `CC(C)(C)c1cc(/C=C/C(=O)O)cc(C(C)(C)C)c1O` [BHA, (E)-3-(3,5-di-tert-butyl-4-hydroxyphenyl)acrylic acid, reference compound], for which, on soybean lipoxygenase-1 (setting [5]), the IC50 is over 300 µM.
`CC(C)Cc1ccc(C(C)C(=O)OC2N=C(c3ccccc3Cl)c3cc(Cl)ccc3NC2=O)cc1` (stereo not shown) [Compound 1, 7-Chloro-5-(2-chlorophenyl)-2-oxo-2,3-dihydro-1H-benzo[e][1,4]diazepin-3-yl 2-(4-isobutylphenyl) propanoate] registered a melting point of 105 to 122 °C. In addition, in data set [1] (setting [6]), the inhibition in vivo at 50 µmol/kg was 43% and the inhibition in vivo at 150 µmol/kg stood at 56%. In data set [1] (setting [7]), the inhibition in vivo at 50 µmol/kg was determined as 44% and the inhibition in vivo at 150 µmol/kg was found to be 82%. In data set [1] (setting [8]), the inhibition in vivo at 50 µmol/kg is 57% and the inhibition in vivo at 150 µmol/kg turned out to be 65%. Also, the inhibition in vivo at 150 µmol/kg in data set [2] was found to be 68%. On soybean lipoxygenase-1 (compound 50 µΜ, sodium linoleate 0.1 mM, 7 min incubation), the “Lipoxygenase % Inhibition” value was determined as 14%/50 µΜ.
Regarding `COc1ccc2cc(C(C)C(=O)OC3N=C(c4ccccc4Cl)c4cc(Cl)ccc4NC3=O)ccc2c1` (stereo not shown) [Compound 2, 7-Chloro-5-(2-chlorophenyl)-2-oxo-2,3-dihydro-1H-benzo[e][1,4]diazepin-3-yl 2-(6-methoxynaphthalen-2-yl)propanoate], the melting point fell in the range of 136 to 139 °C. The inhibition in vivo at 50 µmol/kg in data set [1] (setting [6]) stood at 42%. For the same compound, the inhibition in vivo at 50 µmol/kg in data set [1] (setting [7]) was determined as 60%. Besides, the inhibition in vivo at 50 µmol/kg in data set [1] (setting [8]) worked out at 71%. Besides, the inhibition in vivo at 150 µmol/kg in data set [2] came to 46%. Further, the “Lipoxygenase IC50” value on soybean lipoxygenase-1 (sodium linoleate 0.1 mM, 7 min incubation) was “-”.
Compound `CC(C(=O)OC1N=C(c2ccccc2Cl)c2cc(Cl)ccc2NC1=O)c1cccc(C(=O)c2ccccc2)c1` (stereo not shown) [Compound 3, 7-Chloro-5-(2-chlorophenyl)-2-oxo-2,3-dihydro-1H-benzo[e][1,4]diazepin-3-yl 2-(3-benzoylphenyl)propanoate] gave a melting point of 195 to 201 °C. Also, the inhibition in vivo at 150 µmol/kg in data set [2] is 65%. In addition, the IC50 at soybean lipoxygenase-1 (setting [5]) was determined as 84 µM.
Consider `COc1ccc2c(c1)c(CC(=O)OC1N=C(c3ccccc3Cl)c3cc(Cl)ccc3NC1=O)c(C)n2C(=O)c1ccc(Cl)cc1` (stereo not shown) [Compound 4, 7-Chloro-5-(2-chlorophenyl)-2-oxo-2,3-dihydro-1H-benzo[e][1,4]diazepin-3-yl 2-(1-(4-chlorobenzoyl)-5-methoxy-2-methyl-1H-indol-3-yl)acetate], for which the melting point was 189 to 191 °C. Also, the inhibition in vivo at 50 µmol/kg in data set [1] (setting [6]) came to 60%. Also, the inhibition in vivo at 50 µmol/kg in data set [1] (setting [7]) is 59%. The inhibition in vivo at 50 µmol/kg in data set [1] (setting [8]) came to 59%. For the same compound, the inhibition in vivo at 150 µmol/kg in data set [2] was 67%. For the same compound, the IC50 on soybean lipoxygenase-1 (setting [5]) was determined as 86 µM.
For `Cc1c(Cl)cccc1Nc1ccccc1C(=O)OC1N=C(c2ccccc2Cl)c2cc(Cl)ccc2NC1=O` (stereo not shown) [Compound 5, 7-Chloro-5-(2-chlorophenyl)-2-oxo-2,3-dihydro-1H-benzo[e][1,4]diazepin-3-yl 2-((3-chloro-2-methylphenyl)amino)benzoate], the melting point fell in the range of 206 to 207 °C. Moreover, in data set [1] (setting [6]), the inhibition in vivo at 50 µmol/kg amounted to 48%. The inhibition in vivo at 50 µmol/kg in data set [1] (setting [7]) came to 56%. For the same compound, the inhibition in vivo at 50 µmol/kg in data set [1] (setting [8]) was 57%. Moreover, the inhibition in vivo at 150 µmol/kg in data set [2] was 55%. The “Lipoxygenase % Inhibition” value on soybean lipoxygenase-1 (compound 100 µΜ, sodium linoleate 0.1 mM, 7 min incubation) was found to be 22%/100 µΜ.
Regarding `O=C(CCCCC1CCSS1)OC1N=C(c2ccccc2Cl)c2cc(Cl)ccc2NC1=O` (stereo not shown) [Compound 6, 7-Chloro-5-(2-chlorophenyl)-2-oxo-2,3-dihydro-1H-benzo[e][1,4]diazepin-3-yl 5-(1,2-dithiolan-3-yl)pentanoate], the melting point lay within 184 to 189 °C. In addition, in data set [1] (setting [6]), the inhibition in vivo at 50 µmol/kg stood at 47% and the inhibition in vivo at 150 µmol/kg is 60%. Also, in data set [1] (setting [7]), the inhibition in vivo at 50 µmol/kg worked out at 48% and the inhibition in vivo at 150 µmol/kg is 82%. Also, in data set [1] (setting [8]), the inhibition in vivo at 50 µmol/kg was found to be 39% and the inhibition in vivo at 150 µmol/kg was determined as 41%. In addition, the “Antioxidant activity (lipid peroxidation and DPPH experiments)” value in data set [3] was “do not express any antioxidant activity; also recorded: inactive”. Further, the inhibition in vivo at 150 µmol/kg in data set [2] amounted to 39%. Also, on soybean lipoxygenase-1, half-maximal inhibition (IC50) required 60 µM.
`O=C(Cc1c[nH]c2ccccc12)OC1N=C(c2ccccc2Cl)c2cc(Cl)ccc2NC1=O` (stereo not shown) [Compound 9, 7-Chloro-5-(2-chlorophenyl)-2-oxo-2,3-dihydro-1H-benzo[e][1,4]diazepin-3-yl 2-(1H-indol-3-yl)acetate]: the melting point was in the range of 257 to 258 °C. In addition, in data set [3], the “Antioxidant activity (lipid peroxidation and DPPH experiments)” value is “do not express any antioxidant activity”. For the same compound, the inhibition in vivo at 150 µmol/kg in data set [2] was found to be 43%. Moreover, on soybean lipoxygenase-1, half-maximal inhibition (IC50) was put at 255 µM.
`CC(C)Cc1ccc(C(C)C(=O)O)cc1` (stereo not shown) [Ibuprofen, reference compound]: the inhibition in vivo at 300 µmol/kg in data set [1] (setting [6]) is 42%; in data set [1] (setting [7]) it was 41%; in data set [1] (setting [8]) it was 38%. The inhibition in vivo at 150 µmol/kg in data set [2] amounted to 36%.
Consider `COc1ccc2c(c1)c(CC(=O)O)c(C)n2C(=O)c1ccc(Cl)cc1` [Indomethacin, reference compound], for which the inhibition in vivo at 150 µmol/kg in data set [2] worked out at 42%.
For `COc1ccc2cc([C@H](C)C(=O)O)ccc2c1` [Naproxen, reference compound], the results for the inhibition in vivo at 500 µmol/kg in data set [1] (setting [6]), in data set [1] (setting [7]) and in data set [1] (setting [8]) were 26%, 53% and 44%, respectively. In data set [2], the inhibition in vivo at 150 µmol/kg came to 11%.
Regarding `Cc1c(Cl)cccc1Nc1ccccc1C(=O)O` [Tolfenamic acid, reference compound], in data set [2], the inhibition in vivo at 150 µmol/kg was 24%. At soybean lipoxygenase-1 (setting [5]), the IC50 was 170 µM.
As for `Cc1c(C)c2c(c(C)c1O)CCC(C)(C(=O)O)O2` (stereo not shown) [Trolox, 6-hydroxy-2,5,7,8-tetramethylchroman-2-carboxylic acid, reference compound], the IC50 in data set [3] (rat hepatic microsomal fraction, ferrous ascorbate, 45 min incubation) is 25 µM; on soybean lipoxygenase-1 (setting [5]) it was over 300 µM. Further, the “Percent Interaction with DPPH” value in data set [4] (compound 50 µΜ) came out at 38%; in data set [4] (compound 100 µΜ) it was 90%; in data set [4] (compound 200 µΜ), 92%.

The values are drawn from publication PMC6767220, “Active Anti-Inflammatory and Hypolipidemic Derivatives of Lorazepam” (Molecules, 2019).
